Literature values in patent US20210220347A1 (priority 2015, published 2021).

Details: in vivo

## CN1CC[C@]23c4c5ccc(O)c4O[C@H]2[C@@H](O)C=C[C@H]3[C@H]1C5 [morphine]
  Respiratory depression dose response: linear and dose proportional
